Assay results from patent US9682961B2, “Quinazoline derivative” (CARNA BIOSCIENCES, INC., priority 2013, dated 2017).

System: AXIN2 protein expression
Assay: Expression level of Wnt/β-catenin target protein AXIN2 by western blotting in HCT116 cells
Format: cell-based
Conditions: Homo sapiens, 24 hours, read-out: Inhibition rate (%) AXIN2 protein
Method: Expression levels of target proteins of the Wnt/β-catenin signaling pathway was analyzed by western blotting method, and effects of the compound of the present invention on Wnt/β-catenin signaling activity were studied by using a change of these levels as an indicator. HCT116 cells cultured in the same manner as in Test Example 2 were diluted with the medium 1 so as to have a cell concentration of 5×10^5 cells/mL, and 5 mL of the diluted cells were seeded into T25 flasks, followed by culturing overnight in the 5% CO2 incubator. Next day, solutions of the compound to be tested obtained by diluting 10 and 3 mM DMSO stock solutions of the compound to be tested 100-fold with the medium 1 were added to each flask so that the amount of the solution in the flask was one tenth of the amount of the final solution (final concentrations of the compound to be tested: 10 and 3 μM). […] Supernatant was recovered by centrifugal operation (15,000 rpm, 10 min.) and amounts of proteins were determined. […] Thereafter, using a CCD camera (GE Healthcare Co., ImageQuant LAS 500), the respective bands were detected by chemiluminescence. The detected bands were quantified by densitometry (GE Healthcare Co., ImageQuant TL v8.1.0.0). Inhibition rates were calculated from the intensities of the bands in the respective groups, with the luminescence of the band of the DMSO added group being 100%. […]

With `O[C@H]1CC[C@@H](Oc2cccc3cnc(Nc4ccc5nc[nH]c5c4)nc23)CC1` [Example 1, cis-4-({2-[(1H-benzo[d]imidazol-6-yl)amino]quinazolyn-8-yl}oxy)cyclohexanol] the inhibition at 3 µM (HCT-116, 3 μM) was 46.1% and the inhibition at 10 µM (HCT-116, 10 μM) was 66.9%.
